US20110117210A1, “Therapeutic treatment of human cancers using simple salts of zinc” (priority 2009, published 2011)
Like-named read-outs stand apart in the source and are kept apart here.

Assays:
[1] = 80 mg per day of zinc for 6.3 years on average; cited from earlier work
[2] = after ingesting 4 grams (570 milligrams of elemental zinc); cited from earlier work
[3] = tested on: squamous cell carcinoma of the lung; test: Clinical Case History 1: oral zinc salt treatment of a lung cancer patient; type: in vivo, human
Description: A person was admitted to hospital with a cough, life threatening hemoptysis on Jan. 30, 2009. […] Because the patient denied either operation or chemotherapy, their survival prognosis was poor, up to 2 months survival time.
The patient then began taking Zinc Picolinate, orally, at a dose concentration of 200 mg a day. The patient orally ingested Zinc Picolinate daily, for 5 months (from February, 2009 to July, 2009) at a concentration of 200 mg per day, as a dose of 100 mg ingested twice a day with a meal. To date, the patient has not taken any other chemotherapeutic anticancer drug/agent, nor has undergone any other form of conventional cancer treatment.
The patient has been orally ingesting 200 mg of Zinc Picolinate per day for nearly six calendar months time. […] The patient has been orally taking 600 mg of Zinc Picolinate daily from August, 2009 to October, 2009.

[4] = tested on: metastatic melanoma; test: Clinical Case History 2: oral zinc salt treatment of a patient with metastatic melanoma; type: in vivo, human; conditions: oral 600 mg per day; for edema of right leg: July 2009 follow-up; for metastatic nodes in abdominal cavity, computer tomography and ultrasound: Oct. 20, 2009, then 900 mg per 24 hours July-October 2009
Description: In November 2008, the skin lesion became progressively larger and ulcerated. Then in December 2008, a skin tumor resection and dissection of an enlarged right inguinal lymph nodes were performed, yielding melanoma and inguinal lymph nodes with metastatic disease.
In January 2009, a course of conventional chemotherapy was prescribed and performed for the patient.
The patient was subsequently discharged from the hospital, with a poor prognosis (up to 2 months survival time).
The patient then began orally taking Zinc Picolinate at a 600 mg per day dosage. They orally ingested Zinc Picolinate daily, for 5 months time (from February, 2009 to May, 2009); and then Zinc Sulfate daily for 1 month (June, 2009) at a dose of 600 mg per day (300 mg twice a day with a meal) and for 4 months (from July, 2009 to October, 2009) at a dose of 900 mg per 24 hours (300 mg every 8 hours with a meal).

[5] = tested on: lung cancer (squamous cell carcinoma); test: Clinical Case History 3: oral zinc salt treatment of a lung cancer patient after radiotherapy; type: in vivo, human
Description: A person afflicted with lung cancer (tumor stenosis of right upper lobe bronchus, squamous cell carcinoma) had been conventionally treated with radiotherapy.
The patient then began to take Zinc Picolinate daily, for 1 month, at a dose of 600 mg per day (orally ingested as 300 mg of Zinc Picolinate taken twice a day with meals). […] The patient continued to take Zinc Picolinate orally from August, 2009 till October, 2009—but at a dose of 900 mg per day (orally ingested as 300 mg of Zinc Picolinate every 8 hours with meals).

[6] = Monitoring of treated cancer patients for manifestations of zinc toxicity; type: in vivo, human; conditions: for toxic effects of zinc treatment: oral 600 mg per day 5 months, 900 mg per day 4 months
Description: Step 4: Periodically monitoring the status of the afflicted human subject during the therapeutic treatment regimen to confirm that no manifestations of zinc toxicity appear.
The levels of zinc can be monitored in plasma by conventional blood test. A medically normal concentration of zinc in human plasma is about 100 μg/100 mL.
The oncologist or physician should therefore periodically examine their patient in two ways during treatment:
First, the patient should be physically examined on a regular time basis for symptoms of zinc toxicity. As noted above, the risk and dangers of zinc toxicity in humans can occur in both acute and chronic forms; and symptoms of zinc toxicity can appear as nausea, vomiting, loss of appetite, abdominal cramps, diarrhea, and headaches.
Second, samples of the patient's blood should be taken routinely and regularly tested for zinc content using the blood chemistry assays and instrumentation conventionally known and commercially sold for this purpose. Although the values for the individual patient will likely vary considerably, the test results should approximate the medically normal concentration of zinc in human plasma of about 100 μg/100 mL.
In addition, although it is considered very unlikely that any manifestations of zinc toxicity will appear in an individual patient over the duration of therapeutic treatment with the present invention, it is deemed to be proper and necessary to verify that no serious manifestations of zinc toxicity appear regardless of how long the treatment regimen is continued. This is considered to be especially important in view of the likelihood of months and years of therapeutic treatment for some patients. Accordingly, the testing for undesirable zinc effects and toxicity should continue concurrently with and over the full duration of the therapeutic treatment for the patient.

[7] = water and aqueous based fluids, cited from earlier work
[8] = target: GSK-3 (Glycogen Synthase Kinase-3) (Homo sapiens, UniProt P49841); conditions: cited from earlier work
GSK-3 (Glycogen Synthase Kinase-3), sequence (P49841 whole entry): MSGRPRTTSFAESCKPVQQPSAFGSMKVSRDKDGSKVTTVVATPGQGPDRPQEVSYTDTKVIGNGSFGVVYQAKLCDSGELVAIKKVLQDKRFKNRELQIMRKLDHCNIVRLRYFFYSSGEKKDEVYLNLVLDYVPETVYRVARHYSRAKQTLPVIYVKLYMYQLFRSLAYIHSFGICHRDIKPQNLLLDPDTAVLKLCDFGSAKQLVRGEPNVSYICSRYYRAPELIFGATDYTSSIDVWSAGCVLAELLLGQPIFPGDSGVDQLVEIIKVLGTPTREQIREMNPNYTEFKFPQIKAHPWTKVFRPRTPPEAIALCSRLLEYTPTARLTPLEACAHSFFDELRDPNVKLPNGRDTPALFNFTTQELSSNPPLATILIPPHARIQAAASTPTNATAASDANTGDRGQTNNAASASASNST

[9] = cited from earlier work
[10] = human, cited from earlier work
[11] = tested on: HIPK2i cells; conditions: zinc added to culture medium concomitant with adriamycine (ADR); cited from earlier work
[12] = tested on: human prostate cancer cells; conditions: cited from earlier work
[13] = tested on: human colorectal cancer cells; conditions: in-vitro; cited from earlier work
[14] = tested on: human thyroid cancer cells; conditions: in vitro; cited from earlier work
[15] = Case History 2, metastatic melanoma
[16] = Case History 2, metastatic melanoma, oral 600-900 mg per day

Molecule: [O]=[Zn] [zinc oxide]
- hospitalizations for genitourinary causes [1]: significant increase

Molecule: Zinc Gluconate
- time to severe nausea and vomiting [2]: ≤ 30 min

Molecule: Zinc Picolinate
- signs of cancer progression ([3]; November 2009, nine months of treatment: 200 mg per day, then 600 mg daily August-October 2009): no signs of cancer progression
- clinical outcome of treatment (tumor growth, disease status) ([3]; oral 200 mg per day (100 mg twice a day), 5 months, no other cancer treatment): suppression of tumor growth and stabilization of the disease
- right pleural effusion, computer tomography ([3]; oral 200 mg per day about 5 months, Jul. 1, 2009, effusion present Jan. 14, 2009): no right pleural infusion
- changes in the size of enlarged subcarinal lymph nodes, computer tomography ([3]; oral 200 mg per day about 5 months, Jul. 1, 2009 vs Jan. 14, 2009): no meaningful changes
- changes in the size of primary lung tumor, computer tomography ([3]; person, oral 200 mg per day (100 mg twice a day) about 5 months, Jul. 1, 2009 vs Jan. 14, 2009): no substantive changes
- edema of right leg [4]: significantly decreased
- metastatic nodes in abdominal cavity, computer tomography and ultrasound [4]: complete regression
- overall physical condition (cough, shortness of breath) ([5]; 600 mg per day 1 month, then 900 mg per day 3 months): significant improvement
- tumor size, bronchoscopy ([5]; Oct. 21, 2009, 600 mg per day 1 month, then 900 mg per day August-October 2009): significant decrease
- right upper lobe bronchus previously obstructed by tumor, bronchoscopy ([5]; Oct. 21, 2009, 90% of bronchial lumen obstructed Jun. 14, 2009, 600 then 900 mg per day): complete opening
- decrease in the size of the lung tumor, X-ray examination ([5]; after one month oral 600 mg per day (300 mg twice a day)): 2 fold
- weight loss ([6]; Case History 1, lung cancer, nine months oral treatment, 200 then 600 mg per day): no weight loss
- toxic effects of treatment ([6]; Case History 1, lung cancer, oral 200 mg per day, later 600 mg per day): no toxic effects
- toxic effects of zinc treatment [6, 15]: no toxic effects
- weight loss [6, 16]: no weight loss
- zinc toxic effects ([6]; Case History 3, lung cancer, oral 600 mg per day 1 month, 900 mg per day 3 months): no zinc toxic effects
- weight loss ([6]; Case History 3, lung cancer, oral 600-900 mg per day): no weight loss
- zinc toxicity ([6]; three cancer patients (Case Histories 1-3), 200 mg to 900 mg per day, daily for 4-9 months): no zinc toxicity
- Water Solubility [7]: slightly soluble
- Water Solubility ([7]; listed as zinc picolinate): only slightly soluble

Molecule: [Zn] [zinc]
- IC50 [8]: 15 µM
- level of zinc in diet known to cause chronic zinc toxicosis [9]: > 2,000 ppm
- intake with reported reductions in a copper-containing enzyme (marker of copper status) ([10]; up to 10 weeks): approximately 60 mg/day
- intake associated with chronic effects: low copper status, altered iron function, reduced immune function, reduced high-density lipoproteins [10]: 150-450 mg of zinc per day
- wtp53 transcription activity [11]: restored wtp53 transcription activity

Molecule: O=S(=O)([O-])[O-].[Zn+2] [Zinc Sulfate]
- edema of right leg [4]: significantly decreased
- metastatic nodes in abdominal cavity, computer tomography and ultrasound [4]: complete regression
- toxic effects of zinc treatment [6, 15]: no toxic effects
- weight loss [6, 16]: no weight loss
- apoptosis [12]: induce apoptosis
- proliferation [12]: inhibit proliferation

Molecule: [Cl-].[Cl-].[Zn+2] [Zinc Chloride]
- proliferation [13]: inhibits proliferation
- apoptosis [14]: induces apoptosis
- proliferation [14]: inhibits proliferation
